Measured values published in patent publication US5731155A, “Compositions for inhibition of intracellular transcription factors and methods therefor” (Washington University, priority 1996, dated 1998).
Where a SMILES comes first, the peptide text is derived from it. [ ]: non-standard residue; d: D form. pY = N[C@@H](Cc1ccc(OP(=O)(O)O)cc1)C(=O)O

Experiments:
[1] = molecular target: T1, p91 (Homo sapiens, UniProt P42224); experiment: Electrophoretic mobility shift assay (EMSA) of IFNγ-induced p91 activation in Colo-205 homogenates; format: biochemical; conditions: phosphopeptide 3 μM
T1 construct: endogenous in cells; host or cells: Colo-205 (human adenocarcinoma) cell homogenates
T1 sequence (P42224 1-750): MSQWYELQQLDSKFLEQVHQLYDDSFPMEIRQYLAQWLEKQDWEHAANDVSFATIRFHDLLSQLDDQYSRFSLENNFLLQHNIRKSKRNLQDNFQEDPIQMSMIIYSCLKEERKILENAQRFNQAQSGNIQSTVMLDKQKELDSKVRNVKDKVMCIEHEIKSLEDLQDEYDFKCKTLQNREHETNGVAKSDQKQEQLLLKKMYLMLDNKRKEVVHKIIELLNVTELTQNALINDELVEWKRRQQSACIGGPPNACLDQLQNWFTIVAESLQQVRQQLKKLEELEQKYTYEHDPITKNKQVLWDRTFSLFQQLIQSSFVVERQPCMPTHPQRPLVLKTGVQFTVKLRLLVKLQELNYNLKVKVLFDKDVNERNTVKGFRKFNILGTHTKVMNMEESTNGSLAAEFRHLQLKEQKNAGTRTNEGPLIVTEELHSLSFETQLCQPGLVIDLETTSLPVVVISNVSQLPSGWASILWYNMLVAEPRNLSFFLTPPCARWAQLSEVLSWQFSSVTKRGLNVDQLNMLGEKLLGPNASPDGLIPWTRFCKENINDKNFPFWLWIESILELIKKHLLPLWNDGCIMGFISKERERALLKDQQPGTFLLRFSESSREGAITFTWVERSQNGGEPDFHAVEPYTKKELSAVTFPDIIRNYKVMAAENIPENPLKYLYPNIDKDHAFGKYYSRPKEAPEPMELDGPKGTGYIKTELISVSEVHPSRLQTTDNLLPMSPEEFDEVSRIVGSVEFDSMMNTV
Description: For this example, the finding that the latent IFNγ inducible transcription factor, p91, can be activated by IFNγ in a cell free system (Igarashi et al., Mol Cell Biol 13:1634-1640, 1993 which is incorporated by reference) was utilized to determine the biologic significance of the IFNγ induced tyrosine phosphorylation of the Y440 residue in the IFNγ receptor molecule. Colo-205 homogenates were stimulated with 1900 IRU of human IFNγ and p91 activation monitored using an electrophoretic mobility gel shift assay (EMSA) that employed a ^32 P-labeled 18 bp probe derived from the FcγR I gene promoter (Pearse et al., Proc Natl Acad Sci 90:4314-4318, 1993 which is incorporated by reference). The EMSAs were carried out essentially as described (Igarashi et al., supra). […] The reactions were then electrophoresed through a 6% polyacrylamide gel in 0.25×TBE for 3 hours at 150 V. Gels were dried and subsequently analyzed by autoradiography. […] Specificity of interactions were determined by the addition of 350 ng of the unlabeled GRR probe or 560 ng of the unlabeled 41 base pair double stranded oligonucleotide containing the ISRE of ISG15 (5'-GATCCATGCCTCGGGA-[…]-3' SEQ ID NO: 14) (David and Larner, Science 257:813-815, 1992 which is incorporated by reference). […]

[2] = tested on: IFNγ receptor α chain; experiment: IFNγ dependent tyrosine phosphorylation of the IFNγ receptor α chain in Colo-205 cells (4G10 western blot); format: cell-based, human; conditions: pretreatment of Colo-205 cells with 1 mM
Description: For these experiments, Colo-205, a human adenocarcinoma cell line obtained from the ATCC, was used because it was known to express a high number of IFNγ receptors (10,000 receptors/cell) and has been well characterized with regard to both biologic responsiveness to IFNγ and IFNγ receptor […] phosphorylation (Hershey and Schreiber, 1989; Hershey et al., 1990 both of which are incorporated by reference). Colo-205 cells (5-10×10^7) were resuspended in one ml of PBS-10% FCS and were then incubated at 37° C., either in the presence or absence of rHuIFNγ (10,000 IRU). Purified recombinant human IFNγ was provided by Dr. Susan Kramer of Genentech, Inc. (South San Francisco, Calif.). […] Purified rHuIFNγ was radioiodinated, using Bolton Hunter reagent (ICN Chemicals, Radioisotope Division, Irvine, Calif.) to specific activities of 6.5-17.8 μCi/μg as described in Celada et al. (J Clin Invest 76:2196-2205, 1985 which is incorporated by reference). The reaction was stopped by adding 4 mls of ice-cold PBS. Cells were pelleted, washed once in ice-cold PBS, and then lysed in one ml of lysis buffer (25 mM Tris-HCl (pH 8.0), 1% NP-40, 150 mM NaCl, 1 mM sodium orthovanadate, 10 mM NaF, 1 mM PMSF, 5mM iodoacetamide, […] leupeptin and aprotinin). Solubilized cells were centrifuged at 15,000×g to remove cell nuclei and the supernatants were then incubated with 10 μg of GIR-94 for 30 minutes at 4° C. Protein G sepharose was added to the reaction mixture and the incubation continued for an additional 30 minutes. […]
To determine the amount of receptor precipitated at each time point, aliquots from each immunoprecipitate were subjected to western blot analysis using a monoclonal antibody (GIR-94, a murine antibody IgG2b) that is specific for the human IFNγ receptor extracellular domain. In the absence of added IFNγ, no tyrosine phosphorylated receptor was detected (FIG. 1, lane 1). […]

[3] = tested on: Colo-205 cells; experiment: IFNγ dependent MHC class II induction on Colo-205 cells; format: cell-based, human; conditions: pretreatment of Colo-205 cells with 1 mM
Experimental: To further characterize the tyrosine phosphorylation of the […] receptor and to partially validate its biologic significance, concomitant dose-response phosphorylation and MHC class II induction analyses were performed. Colo-205 cells (1×10^8 cells/ml) were stimulated for 5 minutes with the indicated concentrations of rHuIFNγ as shown in FIG. 2. Cells were lysed and the IFNγ receptor immunoprecipitated, subjected to SDS-PAGE and electrophoretically transferred to nitrocellulose membranes as described above. Membranes were blotted with the mAb 4G10 (anti-phosphotyrosine) as described. Colo-205 cells (1×10^8 cells/ml) were also stimulated for 5 minutes with the indicated concentrations of rHuIFNγ, washed, and incubated an additional 48 hours in the absence of rHuIFNγ. MHC class II expression was quantitated by flow cytometric analysis.

[4] = Specific antiviral activity of rHuIFNγ; conditions: purified recombinant human IFNγ

C[C@@H](O)[C@H](N)C(=O)N[C@@H](CO)C(=O)N[C@@H](Cc1ccccc1)C(=O)NCC(=O)N[C@@H](Cc1ccc(OP(=O)(O)O)cc1)C(=O)N[C@@H](CC(=O)O)C(=O)N[C@@H](CCCCN)C(=O)N1CCC[C@H]1C(=O)N[C@@H](Cc1c[nH]cn1)C(=O)O [SEQ ID NO:3, Thr-Ser-Phe-Gly-Xaa-Asp-Lys-Pro-His] (H-TSFG[pY]DKPH-OH)
inhibition of formation of activated p91-labeled probe complex [1]: 61%

CO[C@H]1[C@@H](OC)C[C@H](C)[C@@H](OC)C2=CC(=O)C=C(NC(=O)/C(C)=C/C=C\[C@H](OC)[C@@H](OC(N)=O)/C(C)=C/[C@@H]1C)C2=O [herbimycin A, reference compound]
IFNγ dependent tyrosine phosphorylation of the IFNγ receptor α chain [2]: inhibited | IFNγ dependent MHC class II induction [3]: blocked

B1: rHuIFNγ: Purified recombinant human IFNγ provided by Genentech, Inc. (protein, UniProt P01579 24-161, looked up)
Interferon gamma: QDPYVKEAENLKKYFNAGHSDVADNGTLFLGILKNWKEESDRKIMQSQIVSFYFKLFKNFKDDQSIQKSVETIKEDMNVKFFNSNKKKRDDFEKLTNYSVTDLNVQRKAIHELIQVMAELSPAAKTGKRKRSQMLFRG
specific antiviral activities [4]: 3.8×10^7 IRU/mg
